Data as given in patent US20210207095A1, “METHODS OF ACTIVATING CELLS VIA PTP 1B INHIBITION” (Monash University, priority 2018, published 2021).

Columns and labels:
[1] = Body weight, food intake and body composition of tumour-bearing mice treated with PTP1B inhibitor; type: in vivo
Method: (§1) FIG. 20. PTP1B-specific inhibitor MSI-1436 (Trodusquemine) repressed tumor growth. 1×10^6 AT-3 OVA breast cancer cells suspended in 20 μl 1×DPBS were transplanted into mammary fat pads of T cell-specific PTP1B-deficient (Lck-Cre; Ptpn1^fl/fl; n=16) and PTP1B wild-type (Ptpn1^fl/fl; n=16) female mice. 17 days after the tumor cell transplantation, MSI-1436 was applied to recipient mice through intraperitoneal injection in 100 μl 0.9% (v/v) saline with the concentration of 10 mg per kilogram body weight. 8 out 16 mice from both Ptpn1^fl/fl and Lck-Cre; Ptpn1^fl/fl recipients were treated every three days with MSI-1436 before the start of the dark cycle. […] This was accompanied by a reduction in food intake and adiposity but no changes in lean mass (data not shown). Representative results (means±SEM) for the indicated numbers of mice and experiments are shown. Significances were determined using 2-tailed Mann-Whitney U Test.

[2] = test system: AT-3 OVA breast cancer cells; test: Syngeneic AT-3 OVA breast cancer tumour growth in mice treated with PTP1B inhibitor; type: in vivo; details: for Tumor growth: AT-3 OVA cells in mammary fat pads, Ptpn1fl/fl and Lck-Cre;Ptpn1fl/fl female mice, 10 mg/kg i.p. every three days from day 17, vs untreated Ptpn1fl/fl, p<0.0001, 2-way ANOVA
Method: as §1
Breast cancer cells were transplanted into mammary fat pads of mice that were “globally” ptp1b-deficient (Ptpn1^−/−) or T-cell specific ptp1b-deficient (Lck-Cre; Ptpn1^fl/fl). Tumour growth was monitored for 28 days after transplantation. […] (FIG. 18A). […] (FIG. 19A).

## CC(C)[C@@H](CC[C@@H](C)[C@H]1CC[C@H]2[C@@H]3[C@H](O)C[C@H]4C[C@@H](NCCCNCCCCNCCCN)CC[C@]4(C)[C@H]3CC[C@]12C)OS(=O)(=O)O [MSI-1436, Trodusquemine]
[1]; Lck-Cre;Ptpn1fl/fl or Ptpn1fl/fl mice, 10 mg/kg i.p. every three days, p<0.0001
  Body weight: significant weight loss
[1]; treated mice, data not shown
  Adiposity: reduction
  Food intake: reduction
  Lean mass: no changes
[2]; 10 mg/kg
  Tumor growth: significantly suppressed
[2]; listed as MSI1436, 10 mg/kg
  Tumor growth: repressed the growth
[2]; Lck-Cre;Ptpn1fl/fl mice, treatment once every 3 days
  Tumour burden in mice lacking PTP1B in T cells: did not lead to further reductions in tumour burden
[2]; MSI-1436-treated Ptpn1fl/fl mice vs non-treated counterparts, 10 mg/kg i.p. every three days, p<0.0001
  Tumor burden: significant reduction of tumor burden
